Where two headings read alike, the source gives them in different places.
Key:
Type in all cases: binding
SARS-CoV-2 gRNA = settings: for target (unweighted spectral count of the protein in the RNP capture): LC-MS/MS, Probe I sample (first 199 lines of Table 2)
[1] = system: SARS-CoV-2 gRNA and sgRNAs; settings: for target (unweighted spectral count of the protein in the RNP capture experiment): LC-MS/MS label-free quantification, probe pool not given; for back-ground (unweighted spectral count of the protein in the control experiment): protein background of the control (e.g. no-probe) experiment; for target (unweighted spectral count in RNP capture): Probe II capture, LC-MS/MS LFQ; for background (unweighted spectral count in control): no-probe control pull-down, used as background for Probe II
HCoV-OC43 gRNA and sgRNA = settings: for target (unweighted spectral count, OC43 Probe II capture) / target (unweighted spectral count): tested against no-probe control; for target (unweighted spectral count, OC43 Probe II capture): FDR<10%; for target (unweighted spectral count, OC43 Probe II) / background (unweighted spectral count, no-probe control): type n_48_v, 48 hpi; for target (unweighted spectral count, OC43 Probe II): OC43 Probe II capture on infected cells; for background (unweighted spectral count, no-probe control): no-probe control on infected cells; for target (unweighted spectral count): OC43 Probe II, infected cells; for target (spectral count) / background (spectral count): type s_36_m, Probe II; for target (spectral count): HCoV-OC43-infected HCT-8 cells; for background (spectral count): uninfected-probe control
gRNA of HCoV-OC43 = settings: for target (spectral count) / background (spectral count): type g_36_m, 36 hpi, Probe I; for target (spectral count): HCoV-OC43-infected HCT-8 cells; for background (spectral count): uninfected-probe control; for target (spectral count, OC43 Probe I RNP capture) / background (spectral count, no-probe control): type n_48_v: 48 hours post-infection; for target (spectral count, OC43 Probe I RNP capture): infected cells, unweighted spectral count; for background (spectral count, no-probe control): no-probe control on infected cells

Substance | target (unweighted spectral count of the protein in the RNP capture) (SARS-CoV-2 gRNA) | target (unweighted spectral count of the protein in the RNP capture experiment) [1] | back-ground (unweighted spectral count of the protein in the control experiment) [1] | target (unweighted spectral count in RNP capture) [1] | background (unweighted spectral count in control) [1] | target (unweighted spectral count, OC43 Probe II capture) (HCoV-OC43 gRNA and sgRNA; 36 hpi, type n_36_v) | target (unweighted spectral count, OC43 Probe II) (HCoV-OC43 gRNA and sgRNA) | background (unweighted spectral count, no-probe control) (HCoV-OC43 gRNA and sgRNA) | target (unweighted spectral count) (HCoV-OC43 gRNA and sgRNA; 12 hpi (type n_12_v)) | target (unweighted spectral count) (HCoV-OC43 gRNA and sgRNA; 24 hpi (type n_24_v)) | target (spectral count) (HCoV-OC43 gRNA and sgRNA; 36 hpi) | background (spectral count) (HCoV-OC43 gRNA and sgRNA; 36 hpi) | target (spectral count) (gRNA of HCoV-OC43) | background (spectral count) (gRNA of HCoV-OC43) | target (spectral count, OC43 Probe I RNP capture) (gRNA of HCoV-OC43) | background (spectral count, no-probe control) (gRNA of HCoV-OC43) | enrichment in SARS-CoV-2 Probe I RNP capture (SARS-CoV-2 gRNA) | enrichment in SARS-CoV-2 Probe II RNP capture [1] | target (unweighted spectral count, OC43 Probe II capture) (HCoV-OC43 gRNA and sgRNA; 24 hpi, type n_24_v)
VIM | 16 | 17 | 4 |  |  |  |  |  |  |  |  |  |  |  |  |  |  |  | 
FXR1 | 9 |  |  | 47 | 1 | 5 | 9 | 1 |  |  |  |  |  |  |  |  |  |  | 
PTBP1: host protein, UniProt P26599 | 108 |  |  |  |  | 61 | 43 | 5 | 17 | 33 | 61 | 12 |  |  |  |  |  |  | 
RPL22L1 | 8 |  |  |  |  |  |  |  | 5 |  |  |  |  |  |  |  |  |  | 
ILF2: host protein, UniProt Q12905 | 12 | 5 | 1 |  |  | 15 | 17 | 3 | 4 | 7 |  |  | 16 | 2 | 14 | 3 |  |  | 
DHX9: host protein, UniProt Q08211 | 15 |  |  | 11 | 1 |  | 31 | 4 |  | 13 | 27 | 3 |  |  | 24 | 4 |  |  | 
ELAVL1: host protein, UniProt Q15717 | 77 |  |  | 74 | 1 | 40 | 36 | 2 | 9 | 17 | 40 | 7 | 38 | 6 | 50 | 2 | found in the SARS-CoV-2 experiments | found in the SARS-CoV-2 experiments | 
MRPL28: host protein, UniProt Q13084 | 12 |  |  |  |  |  | 7 | 1 |  |  |  |  | 13 | 1 | 10 | 1 |  |  | 
NPM1 | 13 |  |  | 17 | 1 |  |  |  | 4 |  |  |  |  |  |  |  |  |  | 7
G3BP1 | 55 |  |  | 54 | 1 | 8 |  |  | 5 |  |  |  |  |  |  |  |  |  | 5
PCBP1 | 12 |  |  |  | 2 | 16 |  |  | 8 | 8 |  |  |  |  |  |  |  |  | 
FAM98A | 7 |  |  |  |  | 4 | 5 | 1 |  |  |  |  |  |  |  |  |  |  | 

Reference: patent publication US20230407373A1 (priority 2020, published 2023)
